# Laboratory results as given in PubChem BioAssay AID270 (DTP/NCI, 2004).
# “And” between values parts separate entries of the source, which are not always exact repeats. Equal values may be shown once. Results filed as inconclusive are left out.
# Test system: BDF1 mice, s.c. Lewis lung carcinoma, T/C %
# Experiment: NCI In Vivo Anticancer Drug Screen. Data for tumor model Lewis Lung Carcinoma (subcutaneous) in B6D2F1 (BDF1) mice
# Summary of the method: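 Readout: survival or tumor size, expressed as treated (T) over vehicle control (C). Transplantable tumor implanted in mice; compound given to the treated group.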
# [1] = endpoint: mean tumor weight, dose: 50.0 mg/kg/injection, schedule: Q01DX011 (ip), vehicle: saline, higher = larger tumour
# [2] = endpoint: mean tumor weight, dose: 100.0 mg/kg/injection, schedule: Q01DX011 (ip), vehicle: saline, higher = larger tumour
# [3] = endpoint: mean tumor weight, dose: 200.0 mg/kg/injection, schedule: Q01DX011 (ip), vehicle: saline, higher = larger tumour
# [4] = endpoint: mean tumor weight, dose: 400.0 mg/kg/injection, schedule: Q01DX011 (ip), vehicle: saline, higher = larger tumour
smiles,measurement,setting,value
CCCCn1cnc2c(SC)ncnc21,T/C,"endpoint: median survival time, dose: 25.0 mg/kg/injection, schedule: Q01DX009 (ip), vehicle: saline with Tween-80, higher = longer survival",89 % of control
same,T/C,"endpoint: median survival time, dose: 50.0 mg/kg/injection, schedule: Q01DX009 (ip), vehicle: saline with Tween-80, higher = longer survival",94 % of control
same,T/C,"endpoint: median survival time, dose: 100.0 mg/kg/injection, schedule: Q01DX009 (ip), vehicle: saline with Tween-80, higher = longer survival",94 % of control
Cc1ccc(NC(=O)N(CCBr)N=O)cc1,T/C,"endpoint: median survival time, dose: 0.5 mg/kg/injection, schedule: Q01DX009 (ip), vehicle: other, higher = longer survival",101 % of control
same,T/C,"endpoint: median survival time, dose: 1.0 mg/kg/injection, schedule: Q01DX009 (ip), vehicle: other, higher = longer survival",103 % of control
same,T/C,"endpoint: median survival time, dose: 1.6 mg/kg/injection, schedule: Q01DX009 (ip), vehicle: other, higher = longer survival",97 % of control
same,T/C,"endpoint: median survival time, dose: 2.0 mg/kg/injection, schedule: Q01DX009 (ip), vehicle: other, higher = longer survival",106 % of control
same,T/C,"endpoint: median survival time, dose: 4.0 mg/kg/injection, schedule: Q01DX009 (ip), vehicle: other, higher = longer survival",97 % of control
same,T/C,"endpoint: median survival time, dose: 6.25 mg/kg/injection, schedule: Q01DX009 (ip), vehicle: other, higher = longer survival",94 % of control and 99 % of control
same,T/C,"endpoint: median survival time, dose: 12.5 mg/kg/injection, schedule: Q01DX009 (ip), vehicle: other, higher = longer survival",95 % of control
same,T/C,"endpoint: median survival time, dose: 25.0 mg/kg/injection, schedule: Q01DX009 (ip), vehicle: other, higher = longer survival",96 % of control
same,T/C,"endpoint: median survival time, dose: 50.0 mg/kg/injection, schedule: Q01DX009 (ip), vehicle: other, higher = longer survival",96 % of control
CC1CCC2(NC1)OC1CC3C4CCC5CC(OC6OC(CO)C(OC7OC(CO)C(O)C(OC8OCC(O)C(O)C8O)C7OC7OC(CO)C(O)C(O)C7O)C(O)C6O)CCC5(C)C4CCC3(C)C1C2C (stereo not drawn),T/C,"endpoint: mean tumor weight, dose: 5.0 mg/kg/injection, schedule: Q01DX011 (sc), vehicle: steriod suspending solution, higher = larger tumour",104 % of control
same,T/C,"endpoint: mean tumor weight, dose: 10.0 mg/kg/injection, schedule: Q01DX011 (sc), vehicle: steriod suspending solution, higher = larger tumour",77 % of control
same,T/C,"endpoint: mean tumor weight, dose: 20.0 mg/kg/injection, schedule: Q01DX011 (sc), vehicle: steriod suspending solution, higher = larger tumour",85 % of control
same,T/C,"endpoint: mean tumor weight, dose: 40.0 mg/kg/injection, schedule: Q01DX011 (sc), vehicle: steriod suspending solution, higher = larger tumour",94 % of control
COc1cc(O)c2c(c1)Cc1cc(C)cc(O)c1C2=O,T/C,"endpoint: median survival time, dose: 0.1 mg/kg/injection, schedule: Q01DX009 (ip), vehicle: saline with Tween-80, higher = longer survival",117 % of control
same,T/C,"endpoint: median survival time, dose: 0.2 mg/kg/injection, schedule: Q01DX009 (ip), vehicle: saline with Tween-80, higher = longer survival",120 % of control and 122 % of control
same,T/C,"endpoint: median survival time, dose: 0.4 mg/kg/injection, schedule: Q01DX009 (ip), vehicle: saline with Tween-80, higher = longer survival",108 % of control
same,T/C,"endpoint: median survival time, dose: 6.25 mg/kg/injection, schedule: Q01DX009 (ip), vehicle: saline with Tween-80, higher = longer survival",110 % of control
O=C(O)O.[Cd],T/C,"endpoint: mean tumor weight, dose: 0.5 mg/kg/injection, schedule: Q01DX011 (ip), vehicle: carboxymethylcellulose (CMC), higher = larger tumour",72 % of control
CC[C@H]1CN2CCc3cc(OC)c(OC)cc3[C@@H]2C[C@@H]1C[C@H]1NCCc2cc(OC)c(OC)cc21,T/C,"endpoint: mean tumor weight, dose: 1.5 mg/kg/injection, schedule: Q01DX011 (ip), vehicle: saline, higher = larger tumour",86 % of control
CS(=O)(=O)OCC#CCOS(C)(=O)=O,T/C,"endpoint: mean tumor weight, dose: 16.0 mg/kg/injection, schedule: Q01DX011 (ip), vehicle: saline, higher = larger tumour",91 % of control
same,T/C,"endpoint: mean tumor weight, dose: 32.0 mg/kg/injection, schedule: Q01DX011 (ip), vehicle: saline, higher = larger tumour",63 % of control
Cn1cnc2c1c(=O)[nH]c(=O)n2C,T/C,[1],74 % of control
same,T/C,[2],72 % of control
same,T/C,[3],85 % of control
same,T/C,[4],84 % of control
CC(C)C1=CCC2C(=C1)CCC1C(C)(C(=O)O)CCCC21C (stereo not drawn) (tested in a mixture with another compound),T/C,[1],72 % of control
same,T/C,[2],75 % of control
same,T/C,[3],57 % of control
same,T/C,[4],45 % of control
CCOc1ccc2nc(S(N)(=O)=O)sc2c1,T/C,"endpoint: mean tumor weight, dose: 25.0 mg/kg/injection, schedule: Q01DX011 (ip), vehicle: carboxymethylcellulose (CMC), higher = larger tumour",79 % of control
same,T/C,"endpoint: mean tumor weight, dose: 50.0 mg/kg/injection, schedule: Q01DX011 (ip), vehicle: carboxymethylcellulose (CMC), higher = larger tumour",122 % of control
same,T/C,"endpoint: mean tumor weight, dose: 100.0 mg/kg/injection, schedule: Q01DX011 (ip), vehicle: carboxymethylcellulose (CMC), higher = larger tumour",38 % of control
NC(=S)N/N=C\c1ncnc2ccccc12,T/C,"endpoint: median survival time, dose: 1.6 mg/kg/injection, schedule: Q01DX009 (ip), vehicle: Klucel (hydroxypropylcellulose) (HPC), higher = longer survival",104 % of control
same,T/C,"endpoint: median survival time, dose: 3.12 mg/kg/injection, schedule: Q01DX009 (ip), vehicle: Klucel (hydroxypropylcellulose) (HPC), higher = longer survival",103 % of control
same,T/C,"endpoint: median survival time, dose: 6.25 mg/kg/injection, schedule: Q01DX009 (ip), vehicle: Klucel (hydroxypropylcellulose) (HPC), higher = longer survival",96 % of control and 108 % of control
